Consider five compounds from patent US4738954A, “Novel N^6 -substituted-5'-oxidized adenosine analogs” (Warner-Lambert Company, priority 1985, dated 1988).

The target of one test is T1, adenosine A2 receptor (Rattus norvegicus, UniProt P30543).
T1 construct: Brains were thawed and then kept on ice while the striata were dissected out; tissue Pel-Freez (Rogers, Arkansas) (rat brains); host or cells: rat striatum, membranes
Kind of test: Adenosine Receptor Binding--A2 Receptor Affinity (RBA2), [3H]NECA displacement. In kind it is rat (Sprague-Dawley striatal membranes). The conditions noted are these: 4 nM [3H]NECA + 50 nM N6-cyclopentyladenosine, rat striatum, 25° C, 60 min; read-out: RBA-2 (IC50, A2 receptor affinity). On the procedure: Adenosine Receptor Binding--A2 Receptor Affinity (RBA2)
Brains from 200-500 g mixed sex Sprague-Dawley rats were purchased from Pel-Freez (Rogers, Arkansas). Fresh brains from male Long-Evans hooded rats (Blue Spruce Farms, Altamont, NY) gave essentially identical results. Brains were thawed and then kept on ice while the striata were dissected out. Striata were disrupted in 10 vol of ice-cold 50 mM Tris.HCl (pH 7.7 at 25° C., pH 8.26 at 5° C.) (Tris) for 30 seconds in a Polytron PT-10 (Brinkmann) at setting 5. The suspension was centrifuged at 50,000×g for ten minutes, the supernatant discarded, the pellet resuspended in 10 vol ice-cold Tris as above, recentrifuged, resuspended at 1 g/5 ml, and stored in plastic vials at -70° C. (stable for at least six months). When needed, tissue was thawed at room temperature, disrupted in a Polytron, and kept on ice until used.
All incubations were for 60 minutes at 25° C. in 12×75 mm glass tubes containing 1 ml Tris with 5 mg original tissue weight of rat weight of rat striatal membranes, 4 nM [^3 H]-N-ethyl adenosine-5'-carboxamide ([^3 H]NECA), 50 nM N^6 -cyclopentyladenosine (to eliminate A1 receptor binding), 10 mM MgCl2, 0.1 units/ml of adenosine deaminase and 1% dimethylsulfoxide. N^6 -Cyclopentyladenosine was dissolved at 10 mM in 0.02N HCl and diluted in Tris. Stock solutions and dilutions of N^6 -cyclopentyladenosine could be stored at -20° C. for several months. Test compounds were dissolved at 10 mM in dimethylsulfoxide on the same day as the experiment, and diluted in dimethylsulfoxide to 100× the final incubation concentration. Control incubations received an equal volume (10 μl) of dimethylsulfoxide; the resulting concentration of dimethylsulfoxide had no effect on binding. [^3 H]NECA was diluted to 40 nM in Tris. The membrane suspension (5 mg/0.79 ml) contained sufficient MgCl2 and adenosine deaminase to give 10 mM and 0.1 units/ml, respectively, final concentration in the incubation. […] After all additions, the rack of tubes was vortexed, and the tubes were then incubated for 60 min at 25° C. in a shaking water bath. The rack of tubes was vortexed an additional time halfway through the incubation.
Incubations were terminated by filtration through 2.4 cm GF/B filters under reduced pressure. Each tube was filtered as follows: the contents of the tube were poured on the filter, 4 ml of ice-cold Tris were added to the tube and the contents poured onto the filter, and the filter was washed twice with 4 ml of ice-cold Tris. The filtration was complete in about twelve seconds. Filters were put in scintillation vials, 8 ml of Formula 947 scintillation fluid added, and the vials left overnight, shaken, and counted in a liquid scintillation counter at 40% efficiency.
Nonspecific binding was defined as binding in the presence of 100 μM N^6 -cyclopentyladenosine, and specific binding was defined as total binding minus nonspecific binding. The IC50 was calculated by weighted nonlinear least squares curve-fitting to the mass-action equation. [formula] where Y is cpm bound
T is cpm total binding without drug
S is cpm specific binding without drug
D is the concentration of drug and
K is the IC50 of the drug
Weighting factors were calculated under the assumption that the standard deviation was proportional to the predicted value of Y. Nonspecific binding was treated as a very large (infinite) concentration of drug in the computer analysis.

For the next test, the system named is mouse locomotor activity. Description: Mouse Activity and Screen Test Procedure (MAST): locomotor activity. It is filed as in vivo, Swiss-Webster male mice. The note with it: mice, one hour. From the text: The compounds of the invention are new chemical substances which are useful as pharmaceutical agents for the treatment of psychoses. The antipsychotic activity of representative compounds of the invention was established by the Mouse Activity and Screen Test Procedure (MAST) described below.
Nine unfasted Swiss-Webster male mice weighing 20-30 g are equally divided into three groups for each drug dose to be tested. That is, data for each dose level was generated by three separate groups of three mice each.
A minimum of three dose levels (10, 30, and 100 mg/kg) are tested for each drug. Treatments are administered intraperitoneally one hour prior to testing. All dosages are calculated as parent compound and given in volumes of 10 ml/kg. Compounds are dissolved or suspended in 0.2% Methocel. Control animals are injected with Methocel.
A two part testing procedure is started one hour postinjection. First, the screen test (ST) is performed (see Pharmac. Biochem. Behav. 6, 351-353, 1977). Briefly this test consists of placing mice on individual wire screens which are then rotated 180 degrees at the start of a 60 second observation period. The number of mice falling off the inverted screen is recorded.
Immediately following the screen test, the final phase of testing is initiated by placing each group of three mice in one actophotometer (Life Sciences, 22, 1067-1076, 1978). The actophotometer consists of a cylindrical chamber whose center is occupied by another cylinder which contains the illumination for six photocells located on the perimeter of the chamber. Six light-beam interruptions equal one count. Locomotor activity is recorded by computer at ten minute intervals for 60 minutes.
The data obtained from the screen test are expressed as percent of mice falling off the screen. Data derived from locomotor activity of drug treated mice are compared to the activity of vehicle treated animals and are expressed as percent inhibition of spontaneous locomotion. All percentages reported for inhibition of locomotion (LI) are based upon data accumulated for one hour. Both phases of testing are graded: A=60-100%; C=31-59%; and N=0-30%. An overall dose rating is obtained by the following criteria:
LAD refers to the lowest dose at which an A rating is achieved. […] Utilizing this procedure, an overall dose rating of A was obtained for the noted compound at the indicated dose. The compounds are identified in the Examples.

Structures are written as SMILES.

T1 sequence (P30543 whole entry): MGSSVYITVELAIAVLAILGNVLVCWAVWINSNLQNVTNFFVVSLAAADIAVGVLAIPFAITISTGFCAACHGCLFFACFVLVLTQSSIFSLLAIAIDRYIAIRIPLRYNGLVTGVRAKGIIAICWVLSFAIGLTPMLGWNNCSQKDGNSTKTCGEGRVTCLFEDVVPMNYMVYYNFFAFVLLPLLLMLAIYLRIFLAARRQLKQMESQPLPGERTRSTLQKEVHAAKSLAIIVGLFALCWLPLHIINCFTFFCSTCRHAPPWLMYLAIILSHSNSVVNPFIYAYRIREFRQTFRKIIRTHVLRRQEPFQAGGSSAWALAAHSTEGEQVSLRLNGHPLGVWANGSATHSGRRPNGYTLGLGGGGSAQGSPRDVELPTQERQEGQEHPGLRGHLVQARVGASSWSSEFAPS

As to `CCOC(=O)[C@H]1O[C@@H](n2cnc3c(NCC(c4ccccc4)c4ccccc4)ncnc32)[C@H](O)[C@@H]1O` [Example 5, N6-(2,2-diphenylethyl)-5-adenosine-5'-ethylcarboxylate], the half-inhibitory concentration (IC50) at adenosine A2 receptor was 468 nM. Moreover, the “Inhibition of mouse locomotor activity” value is on record as -4% in the test on mouse locomotor activity (3 mg/kg IP), 0% with mouse locomotor activity (10 mg/kg IP) and 2% with mouse locomotor activity (30 mg/kg IP).
Consider `CCNC(=O)[C@H]1O[C@@H](n2cnc3c(NCc4cccc5ccccc45)ncnc32)[C@H](O)[C@@H]1O` [Example 6, N-6-Naphthylmethyladenosine-5'-ethylcarboxamide], for which the IC50 on adenosine A2 receptor was found to be 8 nM. In addition, the “Inhibition of mouse locomotor activity” value with mouse locomotor activity (0.03 mg/kg IP) amounted to 21%; in the test with mouse locomotor activity (0.1 mg/kg IP) it was 30%; in the test on mouse locomotor activity (0.3 mg/kg IP), 82%; with mouse locomotor activity (1 mg/kg IP), 87%; in the test with mouse locomotor activity (3 mg/kg IP) it was 88%; in the test on mouse locomotor activity (10 mg/kg IP), 90%.
Take `CCNC(=O)[C@H]1O[C@@H](n2cnc3c(NCC(c4ccccc4)c4ccccc4)ncnc32)[C@H](O)[C@@H]1O` [Example 3, N^6-(2,2-diphenylethyl)-adenosine-5'-ethylcarboxamide]: on adenosine A2 receptor, the IC50 worked out at 25 nM. The “Inhibition of mouse locomotor activity” value amounted to 20% with mouse locomotor activity (0.1 mg/kg IP); 1% in the test with mouse locomotor activity (0.3 mg/kg IP); 72% with mouse locomotor activity (1 mg/kg IP); 92% in the test on mouse locomotor activity (3 mg/kg IP); 90% with mouse locomotor activity (10 mg/kg IP); 93% with mouse locomotor activity (30 mg/kg IP).
Take `CCNC(=O)[C@H]1O[C@@H](n2cnc3c(N[C@H](C)Cc4ccccc4)ncnc32)[C@H](O)[C@@H]1O` [Example 1, (R)-N-6-[(2-phenyl-1-methyl)ethyl]-adenosine-5'-ethylcarboxamide]: on adenosine A2 receptor, the 50% inhibitory concentration (IC50) was 70 nM. Also, the “Inhibition of mouse locomotor activity” value is -8% in the test on mouse locomotor activity (0.01 mg/kg IP); 18% in the test on mouse locomotor activity (0.03 mg/kg IP); 91% in the test on mouse locomotor activity (0.1 mg/kg IP); 75% with mouse locomotor activity (0.3 mg/kg IP); 92% with mouse locomotor activity (1 mg/kg IP); 99% in the test on mouse locomotor activity (3 mg/kg IP). In addition, the “Inhibition of mouse locomotor activity” value in the test with mouse locomotor activity (10 mg/kg IP) and with mouse locomotor activity (30 mg/kg IP) was 99% each time.
Regarding `CCOC(=O)[C@H]1O[C@@H](n2cnc3c(NC4CC5CCC4C5)ncnc32)[C@H](O)[C@@H]1O` (relative stereo) [Example 8, N-6-Norbornyl-adenosine-5'ethylcarboxylate], on adenosine A2 receptor, the IC50 is 12400 nM.
